# Like-named read-outs stand apart in the source and are kept apart here.
# How the values were obtained:
# [1] = LATTE-2 plasma pharmacokinetics (trough concentrations); format: in vivo, human; settings: for C0 relative to in vitro PA-IC90 / C0 at 48 week: Week 48; for C0 at 48 week: human, plasma, im
# Description: Pharmacokinetic plasma concentrations following long-acting cabotegravir+rilpivirine administration are summarized using evaluable data that met sample collection window criteria, excluding samples affected by dosing errors (wrong dose) or oral bridging. Sampling windows for intramuscular dosing were set relative to the previous injection as follows: ±0.5 hours for two-hour postdose samples; ±one day for one-week postinjection visits; ±two days for predose samples in the four-week group, Weeks 4 and 8 cabotegravir samples in the eight-week group, and midcycle concentrations four weeks postinjection in the eight-week group; and ±four days for predose samples in the eight-week group (except for Weeks 4 and 8 cabotegravir samples, as described earlier).
# wild-type HIV-1 = assay: in vitro protein-adjusted 90% inhibitory concentration (PA-IC90); format: cell-based; settings: against wild-type HIV-1
# [2] = tested on: virus with mixture at integrase codon 269 (R269R/G); assay: Susceptibility of virus from subject with protocol-defined virologic failure (integrase R269R/G); parameters: species or system HIV-1; settings: eight-week group subject
# [3] = tested on: virus with reverse transcriptase mutations K103N, E138G, and K238T and integrase mutation Q148R; assay: Phenotypic resistance of virus from subject with protocol-defined virologic failure; parameters: species or system HIV-1; settings: eight-week group subject, RT K103N
compound,measurement,setting,value
"C[C@H]1CO[C@@H]2Cn3cc(C(=O)NCc4ccc(F)cc4F)c(=O)c(O)c3C(=O)N12 [cabotegravir, (3S,11aR)—N-[(2,4-difluorophenyl)methyl]-2,3,5,7,11,11a-hexahydro-6-hydroxy-3-methyl-5,7-dioxo-oxazolo[3,2-a]pyrido[1,2-d] pyrazine-8-carboxamide]",C0 relative to in vitro PA-IC90,[1]; eight-week IM LA,9 fold
same,C0 relative to in vitro PA-IC90,[1]; four-week IM LA,16 fold
same,C0 relative to in vitro PA-IC90,[1]; oral 30 mg once daily,27 fold
same,C0 at 48 week,"[1]; eight-week IM LA, read-out: geometric mean trough concentration (C0)",1460 ng/mL
same,C0 at 48 week,"[1]; four-week IM LA, read-out: geometric mean trough concentration (C0)",2580 ng/mL
same,IC90,"wild-type HIV-1; Human immunodeficiency virus 1, read-out: in vitro protein-adjusted 90% inhibitory concentration (PA-IC90)",0.166 µg/mL
same,Effect of emergent integrase R269R/G mixture on susceptibility,[2],did not decrease
same,Phenotypic resistance/sensitivity of subject's virus,[3],phenotypic resistance
COc1cc2c(cc1Cc1cccc(Cl)c1F)c(=O)c(C(=O)O)cn2[C@H](CO)C(C)C [elvitegravir],Phenotypic resistance/sensitivity of subject's virus,[3],phenotypic resistance
O=C1Nc2ccc(Cl)cc2[C@@](C#CC2CC2)(C(F)(F)F)O1 [efavirenz],Phenotypic resistance/sensitivity of subject's virus,[3],phenotypic resistance
Cc1ccnc2c1NC(=O)c1cccnc1N2C1CC1 [nevirapine],Phenotypic resistance/sensitivity of subject's virus,[3],phenotypic resistance
Cc1cc(/C=C/C#N)cc(C)c1Nc1ccnc(Nc2ccc(C#N)cc2)n1 [rilpivirine],C0 relative to in vitro PA-IC90,[1]; eight-week IM LA,5 fold
same,C0 relative to in vitro PA-IC90,[1]; four-week IM LA,8 fold
same,C0 at 48 week,"[1]; four-week IM LA, read-out: geometric mean C0",94.6 ng/mL
same,Accumulation on repeated IM dosing,"[1]; through 48 weeks of dosing, both IM arms",Accumulation of rilpivirine was observed
same,IC90,"wild-type HIV-1; Human immunodeficiency virus 1, read-out: in vitro PA-IC90",0.012 µg/mL
same,Phenotypic resistance/sensitivity of subject's virus,[3],phenotypic resistance
C[C@@H]1CCO[C@H]2Cn3cc(C(=O)NCc4ccc(F)cc4F)c(=O)c(O)c3C(=O)N12 [dolutegravir],Phenotypic resistance/sensitivity of subject's virus,[3],sensitive
Cc1nnc(C(=O)NC(C)(C)c2nc(C(=O)NCc3ccc(F)cc3)c(O)c(=O)n2C)o1 [raltegravir],Phenotypic resistance/sensitivity of subject's virus,[3],phenotypic resistance
